Experiments:
Assay in all cases: relative viability (nuclei count vs DMSO), 5 days (fraction); higher = more cells survive
A-427 = test system: A-427
Procedure, shortened: (§1)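 Dosing by pin tool came one day after lung cancer cell lines were seeded in 1536-well plates, using either one drug or a fixed anchor-drug dose plus five library-drug doses (not always all listed) in √10 steps. After 5 days, nuclei were counted on 4× images. Relative viability is treated-well nuclei count divided by vehicle-well nuclei count, and values are medians of duplicate plates.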

ABC-1 = test system: ABC-1
Procedure, shortened: as §1

BEN = test system: BEN
Procedure, shortened: as §1

CAL-12T = test system: CAL-12T
Procedure, shortened: as §1

HARA = test system: HARA
Procedure, shortened: as §1

LCLC-103H = test system: LCLC-103H
Procedure, shortened: as §1

LOU-NH91 = test system: LOU-NH91
Procedure, shortened: as §1

NCI-H1651 = test system: NCI-H1651
Procedure, shortened: as §1

NCI-H1666 = test system: NCI-H1666
Procedure, shortened: as §1

NCI-H1734 = test system: NCI-H1734
Procedure, shortened: as §1

NCI-H1944 = test system: NCI-H1944
Procedure, shortened: as §1

NCI-H1975 = test system: NCI-H1975
Procedure, shortened: as §1

NCI-H2085 = test system: NCI-H2085
Procedure, shortened: as §1

NCI-H2126 = test system: NCI-H2126
Procedure, shortened: as §1

NCI-H460 = test system: NCI-H460
Procedure, shortened: as §1

NCI-H520 = test system: NCI-H520
Procedure, shortened: as §1

NCI-H596 = test system: NCI-H596
Procedure, shortened: as §1

NCI-H647 = test system: NCI-H647
Procedure, shortened: as §1

NCI-H661 = test system: NCI-H661
Procedure, shortened: as §1

NCI-H727 = test system: NCI-H727
Procedure, shortened: as §1

NCI-H838 = test system: NCI-H838
Procedure, shortened: as §1

RERF-LC-KJ = test system: RERF-LC-KJ
Procedure, shortened: as §1

SW 900 = test system: SW 900
Procedure, shortened: as §1

Which results are given for `CCNC(=O)c1noc(-c2cc(C(C)C)c(O)cc2O)c1-c1ccc(CN2CCOCC2)cc1` [Luminespib] + COc1cc2c(Oc3ccc(NC(=O)C4(C(=O)Nc5ccc(F)cc5)CC4)cc3F)ccnc2cc1OCCCN1CCOCC1 [Foretinib] (partner 0.25 µM)?
relative viability (A-427; first compound 0.002 µM): 1.14; relative viability (A-427; first compound 0.006325 µM): 0.969; relative viability (A-427; first compound 0.02 µM): 0.84; relative viability (A-427; first compound 0.06325 µM): 1.06; relative viability (A-427; first compound 0.2 µM): 1.1; relative viability (ABC-1; first compound 0.002 µM): 1.08; relative viability (ABC-1; first compound 0.006325 µM): 0.881; relative viability (ABC-1; first compound 0.02 µM): 0.859; relative viability (ABC-1; first compound 0.06325 µM): 0.583; relative viability (ABC-1; first compound 0.2 µM): 0.206; relative viability (BEN; first compound 0.002 µM): 0.63; relative viability (BEN; first compound 0.006325 µM): 0.71; relative viability (BEN; first compound 0.02 µM): 0.362; relative viability (BEN; first compound 0.06325 µM): 0.531; relative viability (BEN; first compound 0.2 µM): 0.222; relative viability (CAL-12T; first compound 0.002 µM): 1.25; relative viability (CAL-12T; first compound 0.006325 µM): 1.15; relative viability (CAL-12T; first compound 0.02 µM): 0.824; relative viability (CAL-12T; first compound 0.06325 µM): 0.127; relative viability (CAL-12T; first compound 0.2 µM): 0.128; relative viability (HARA; first compound 0.002 µM): 1.09; relative viability (HARA; first compound 0.006325 µM): 0.728; relative viability (HARA; first compound 0.02 µM): 1.08; relative viability (HARA; first compound 0.06325 µM): 0.922; relative viability (HARA; first compound 0.2 µM): 0.785; relative viability (LCLC-103H; first compound 0.002 µM): 0.826; relative viability (LCLC-103H; first compound 0.006325 µM): 0.778; relative viability (LCLC-103H; first compound 0.02 µM): 0.757; relative viability (LCLC-103H; first compound 0.06325 µM): 0.87; relative viability (LCLC-103H; first compound 0.2 µM): 0.362; relative viability (LOU-NH91; first compound 0.002 µM): 0.922; relative viability (LOU-NH91; first compound 0.006325 µM): 0.95; relative viability (LOU-NH91; first compound 0.02 µM): 0.577; relative viability (LOU-NH91; first compound 0.06325 µM): 0.378; relative viability (LOU-NH91; first compound 0.2 µM): 0.298; relative viability (NCI-H1651; first compound 0.002 µM): 0.837; relative viability (NCI-H1651; first compound 0.006325 µM): 0.718; relative viability (NCI-H1651; first compound 0.02 µM): 0.826; relative viability (NCI-H1651; first compound 0.06325 µM): 0.309; relative viability (NCI-H1651; first compound 0.2 µM): 0.208; relative viability (NCI-H1666; first compound 0.002 µM): 0.988; relative viability (NCI-H1666; first compound 0.006325 µM): 0.904; relative viability (NCI-H1666; first compound 0.02 µM): 0.986; relative viability (NCI-H1666; first compound 0.06325 µM): 0.94; relative viability (NCI-H1666; first compound 0.2 µM): 0.967; relative viability (NCI-H1734; first compound 0.002 µM): 0.9; relative viability (NCI-H1734; first compound 0.006325 µM): 0.915; relative viability (NCI-H1734; first compound 0.02 µM): 0.697; relative viability (NCI-H1734; first compound 0.06325 µM): 0.175; relative viability (NCI-H1734; first compound 0.2 µM): 0.171; relative viability (NCI-H1944; first compound 0.002 µM): 0.937; relative viability (NCI-H1944; first compound 0.006325 µM): 0.884; relative viability (NCI-H1944; first compound 0.02 µM): 0.653; relative viability (NCI-H1944; first compound 0.06325 µM): 0.767; relative viability (NCI-H1944; first compound 0.2 µM): 0.419; relative viability (NCI-H1975; first compound 0.002 µM): 1.07; relative viability (NCI-H1975; first compound 0.006325 µM): 0.97; relative viability (NCI-H1975; first compound 0.02 µM): 0.615; relative viability (NCI-H1975; first compound 0.06325 µM): 0.0994; relative viability (NCI-H1975; first compound 0.2 µM): 0.108; relative viability (NCI-H2085; first compound 0.002 µM): 1.19; relative viability (NCI-H2085; first compound 0.006325 µM): 0.896; relative viability (NCI-H2085; first compound 0.02 µM): 1.07; relative viability (NCI-H2085; first compound 0.06325 µM): 0.603; relative viability (NCI-H2085; first compound 0.2 µM): 0.457; relative viability (NCI-H2126; first compound 0.002 µM): 0.865; relative viability (NCI-H2126; first compound 0.006325 µM): 1.07; relative viability (NCI-H2126; first compound 0.02 µM): 0.882; relative viability (NCI-H2126; first compound 0.06325 µM): 0.589; relative viability (NCI-H2126; first compound 0.2 µM): 0.207; relative viability (NCI-H460; first compound 0.002 µM): 1.01; relative viability (NCI-H460; first compound 0.006325 µM): 1.07; relative viability (NCI-H460; first compound 0.02 µM): 0.957; relative viability (NCI-H460; first compound 0.06325 µM): 0.0285; relative viability (NCI-H460; first compound 0.2 µM): 0.0276; relative viability (NCI-H520; first compound 0.002 µM): 1.09; relative viability (NCI-H520; first compound 0.006325 µM): 0.659; relative viability (NCI-H520; first compound 0.02 µM): 0.651; relative viability (NCI-H520; first compound 0.06325 µM): 0.147; relative viability (NCI-H520; first compound 0.2 µM): 0.162; relative viability (NCI-H596; first compound 0.002 µM): 0.868; relative viability (NCI-H596; first compound 0.006325 µM): 0.78; relative viability (NCI-H596; first compound 0.02 µM): 0.695; relative viability (NCI-H596; first compound 0.06325 µM): 0.787; relative viability (NCI-H596; first compound 0.2 µM): 0.783; relative viability (NCI-H647; first compound 0.002 µM): 1.32; relative viability (NCI-H647; first compound 0.006325 µM): 1.12; relative viability (NCI-H647; first compound 0.02 µM): 1.32; relative viability (NCI-H647; first compound 0.06325 µM): 0.131; relative viability (NCI-H647; first compound 0.2 µM): 0.0972; relative viability (NCI-H661; first compound 0.002 µM): 1.11; relative viability (NCI-H661; first compound 0.006325 µM): 0.992; relative viability (NCI-H661; first compound 0.02 µM): 0.922; relative viability (NCI-H661; first compound 0.06325 µM): 0.597; relative viability (NCI-H661; first compound 0.2 µM): 0.301; relative viability (NCI-H727; first compound 0.002 µM): 1.04; relative viability (NCI-H727; first compound 0.006325 µM): 0.834; relative viability (NCI-H727; first compound 0.02 µM): 0.669; relative viability (NCI-H727; first compound 0.06325 µM): 0.219; relative viability (NCI-H727; first compound 0.2 µM): 0.332; relative viability (NCI-H838; first compound 0.002 µM): 1.08; relative viability (NCI-H838; first compound 0.006325 µM): 1.06; relative viability (NCI-H838; first compound 0.02 µM): 1.07; relative viability (NCI-H838; first compound 0.06325 µM): 0.582; relative viability (NCI-H838; first compound 0.2 µM): 0.148; relative viability (RERF-LC-KJ; first compound 0.002 µM): 0.875; relative viability (RERF-LC-KJ; first compound 0.006325 µM): 0.832; relative viability (RERF-LC-KJ; first compound 0.02 µM): 0.71; relative viability (RERF-LC-KJ; first compound 0.06325 µM): 0.861; relative viability (RERF-LC-KJ; first compound 0.2 µM): 0.445; relative viability (SW 900; first compound 0.002 µM): 0.966; relative viability (SW 900; first compound 0.006325 µM): 0.742; relative viability (SW 900; first compound 0.02 µM): 0.813; relative viability (SW 900; first compound 0.06325 µM): 0.134; relative viability (SW 900; first compound 0.2 µM): 0.117

Source: the supplement of paper PMC10307832
